One assay concerns the target recombinant human cGAS (Homo sapiens (Human), UniProt Q8N884). As to the kind of experiment: In vitro inhibition assay of cGAS activity (cGAMP production, RapidFire mass spectrometry). Type of assay: biochemical. The settings on record: 10 nM recombinant human cGAS, 60 nM 75-bp dsDNA, ATP, GTP, room temperature 3 hours, read-out: IC50 (μM), In vitro inhibition assay for Compounds 95-348. The procedure, abridged:
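Full-length His6-tagged human cGAS (10 nM, E. coli-expressed) was incubated 3 h at room temperature with 60 nM 75-bp dsDNA, ATP, 50 μM GTP and compound at pH 7.5 with 5 mM MgCl2. cGAMP formation was measured by RapidFire mass spectrometry, and IC50 was taken from a 4-parameter logistic fit.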

In assay [1] the test system is cGAS activity in THP1 cells (IFNb as marker). Kind of assay: Cellular assay to measure cGAS activity (IFNb production in PMA-differentiated THP1 cells stimulated by RDG-Adenovirus-GFP). The settings on record: PMA differentiated, RDG-Adenovirus-GFP 1000 MOI, IFNb AlphaLISA, overnight incubation, read-out: IC50 (μM), Cellular assay for Compounds 95-348. The format is cell-based, human. The method in brief:
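PMA-differentiated THP1 cells were infected with RDG-Adenovirus-GFP at 1000 MOI for 4 h, then exposed overnight to test compounds. IFNb in the supernatant was quantified by AlphaLISA as a cGAS activity marker, and IC50 was fitted with a 4-parameter logistic equation.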
On the technique in general: Alpha assays give light when donor and acceptor beads are brought close together.

[2] abbreviates: Homo sapiens, THP-1, THP1 cells.

Where a name gives a salt, the structure may show the parent alone. Read-outs that look alike come from different tables or passages of the source. Bounds are passed on as bounds.

Chain of recombinant human cGAS (Q8N884 whole entry): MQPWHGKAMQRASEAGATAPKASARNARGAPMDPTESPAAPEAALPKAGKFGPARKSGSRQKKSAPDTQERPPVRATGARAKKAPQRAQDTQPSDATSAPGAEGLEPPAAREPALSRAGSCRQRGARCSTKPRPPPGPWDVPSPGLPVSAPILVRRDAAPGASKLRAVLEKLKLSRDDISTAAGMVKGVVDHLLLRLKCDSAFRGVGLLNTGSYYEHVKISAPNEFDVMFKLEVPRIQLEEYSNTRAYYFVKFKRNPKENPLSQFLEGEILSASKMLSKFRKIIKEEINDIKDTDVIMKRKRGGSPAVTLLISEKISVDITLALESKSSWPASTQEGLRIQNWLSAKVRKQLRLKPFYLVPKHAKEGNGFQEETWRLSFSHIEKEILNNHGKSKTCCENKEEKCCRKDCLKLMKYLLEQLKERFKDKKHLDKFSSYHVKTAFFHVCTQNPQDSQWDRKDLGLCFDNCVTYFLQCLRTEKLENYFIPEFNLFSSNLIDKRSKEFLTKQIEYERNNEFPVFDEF

As for `NCCn1cc(-n2cc(-c3cn[nH]c3)c3ccc(Cl)c(Cl)c32)nn1` [Example 214, 2-[4-[6,7-Dichloro-3-(1H-pyrazol-4-yl)indol-1-yl]triazol-1-yl]ethanamine hydrochloride], the IC50 on recombinant human cGAS was determined as 0.0686 µM; in assay [1] (setting [2]), 0.885 µM.
Consider `O=C(CO)NC1Cc2c(-c3cn[nH]c3)c3ccc(Cl)c(Cl)c3n2C1` (single isomer, unassigned) [Example 248, N-(5,6-Dichloro-9-(1H-pyrazol-4-yl)-2,3-dihydro-1H-pyrrolo[1,2-a]indol-2-yl)-2-hydroxyacetamide], for which the IC50 at recombinant human cGAS was 0.0396 µM; in assay [1] (THP1 cells) it was above 10 µM.
Turning to `CCNc1cc(Cl)c(Cl)c2c1c(-c1cn[nH]c1)c1n2CCN(C(=O)CO)C1` [Example 148, 1-(6,7-Dichloro-9-(ethylamino)-10-(1H-pyrazol-4-yl)-3,4-dihydropyrazino[1,2-a]indol-2(1H)-yl)-2-hydroxyethan-1-one], the figures for the IC50 (at recombinant human cGAS; in assay [1] (setting [2])) were 0.052 µM and 1.54 µM, respectively.
For `C[C@@H](O)C(=O)NCc1[nH]c2c(Cl)c(Cl)ccc2c1-c1cn[nH]c1` [Example 167, (R)—N-((6,7-Dichloro-3-(1H-pyrazol-4-yl)-1H-indol-2-yl)methyl)-2-hydroxypropanamide] the same measures were 0.0672 µM and 1.86 µM.
The corresponding values for `CC(=O)N1CCOC(CCN2CCn3c(c(-c4cn[nH]c4)c4c(OCC#N)cc(Cl)c(Cl)c43)C2=O)C1` (stereo not drawn) [Example 151, 2-[[2-[2-(4-Acetylmorpholin-2-yl)ethyl]-6,7-dichloro-1-oxo-10-(1H-pyrazol-4-yl)-3,4-dihydropyrazino[1,2-a]indol-9-yl]oxy]acetonitrile] are 0.0349 µM and above 10 µM.
Consider `CN(C)C(=O)CCC(=O)N1CCn2c(c(-c3cn[nH]c3)c3c(OCC#N)cc(Cl)c(Cl)c32)C1` [Example 113, 4-[6,7-Dichloro-9-(cyanomethoxy)-10-(1H-pyrazol-4-yl)-3,4-dihydro-1H-pyrazino[1,2-a]indol-2-yl]-N,N-dimethyl-4-oxo-butanamide], for which the IC50 on recombinant human cGAS was found to be 0.018 µM; in assay [1] (setting [2]) it was 3.46 µM.
As to `OCC(O)CNc1cc(Cl)c(Cl)c2[nH]cc(-c3cn[nH]c3)c12` (single isomer, unassigned) [Example 262, 3-[[6,7-Dichloro-3-(1H-pyrazol-4-yl)-1H-indol-4-yl]amino]propane-1,2-diol], the IC50 stood at 0.0772 µM on recombinant human cGAS and 3.62 µM in assay [1] (THP1 cells).
As to `CC(=O)N1CCn2c(c(-c3cn[nH]c3)c3c(OCC(N)=O)cc(Cl)c(Cl)c32)C1` [Example 268, 2-[[2-Acetyl-6,7-dichloro-10-(1H-pyrazol-4-yl)-3,4-dihydro-1H-pyrazino[1,2-a]indol-9-yl]oxy]acetamide], the figures for the IC50 (on recombinant human cGAS; in assay [1] (setting [2])) were 0.0385 µM and 5.87 µM, respectively.
The corresponding values for `O=C(CO)Nc1cc(Cl)c(Cl)c2c1c(-c1cn[nH]c1)c1n2CCN(C(=O)CO)C1` [Example 145, N-(6,7-Dichloro-2-(2-hydroxyacetyl)-10-(1H-pyrazol-4-yl)-1,2,3,4-tetrahydropyrazino[1,2-a]indol-9-yl)-2-hydroxyacetamide] are 0.0804 µM and above 10 µM.
As to `CC(=O)NCc1c(-c2cn[nH]c2)c2ccc(Cl)c(Cl)c2n1C` [Example 134, N-[[6,7-Dichloro-1-methyl-3-(1H-pyrazol-4-yl)indol-2-yl]methyl]acetamide], the IC50 at recombinant human cGAS is 0.0282 µM; in assay [1] (setting [2]) it was 1.59 µM.
For `OCCCOc1cc(Cl)c(Cl)c2[nH]c(CO)c(-c3cn[nH]c3)c12` [Example 338, 3-((6,7-Dichloro-2-(hydroxymethyl)-3-(1H-pyrazol-4-yl)-1H-indol-4-yl)oxy)propan-1-ol] the same measures were 0.00474 µM and 0.198 µM.
The corresponding values for `Clc1cc(NC2COC2)c2c(-c3cn[nH]c3)c[nH]c2c1Cl` [Example 177, 6,7-Dichloro-N-(oxetan-3-yl)-3-(1H-pyrazol-4-yl)-1H-indol-4-amine] are 0.0245 µM and 1.13 µM.
For `O=C(Nc1cc(Cl)c(F)c2c1c(-c1cn[nH]c1)cn2-c1cn(CCO)nn1)C(F)F` [Example 172, N-[6-Chloro-7-fluoro-1-[1-(2-hydroxyethyl)triazol-4-yl]-3-(1H-pyrazol-4-yl)indol-4-yl]-2,2-difluoro-acetamide] the same measures were 0.0341 µM and 0.651 µM.
`COCCS(=O)(=O)NC1CCc2c(-c3cn[nH]c3)c3ccc(Cl)c(Cl)c3n2C1` (stereo not drawn) [Example 117, N-[3,4-Dichloro-10-(1H-pyrazol-4-yl)-6,7,8,9-tetrahydropyrido[1,2-a]indol-7-yl]-2-methoxy-ethanesulfonamide]: the figures for the IC50 (at recombinant human cGAS; in assay [1] (setting [2])) were 0.0153 µM and 2.49 µM, respectively.
The corresponding values for `O=C1CC(CC(=O)N2CCn3c(c(-c4cn[nH]c4)c4c(NC(=O)C(F)F)cc(Cl)c(Cl)c43)C2)CCN1` (stereo not drawn) [Example 276, N-[6,7-Dichloro-2-[2-(2-oxo-4-piperidyl)acetyl]-10-(1H-pyrazol-4-yl)-3,4-dihydro-1H-pyrazino[1,2-a]indol-9-yl]-2,2-difluoro-acetamide] are 0.0405 µM and above 10 µM.
The corresponding values for `CC(=O)N[C@H]1Cc2c(-c3cn[nH]c3)c3c(NC(=O)C(F)F)cc(Cl)c(Cl)c3n2C1` [Example 244, (S)—N-(2-Acetamido-5,6-dichloro-9-(1H-pyrazol-4-yl)-2,3-dihydro-1H-pyrrolo[1,2-a]indol-8-yl)-2,2-difluoroacetamide] are 0.0099 µM and 0.531 µM.
The corresponding values for `CC(=O)NC1CCCn2c1c(-c1cn[nH]c1)c1c(OCC#N)cc(Cl)c(Cl)c12` (stereo not drawn) [Example 202, N-[3,4-Dichloro-1-(cyanomethoxy)-10-(1H-pyrazol-4-yl)-6,7,8,9-tetrahydropyrido[1,2-a]indol-9-yl]acetamide] are 0.0191 µM and 2.68 µM.
For the molecule `CN1CC(C(=O)N2CCn3c(c(-c4cn[nH]c4)c4ccc(Cl)c(Cl)c43)C2)CCC1=O` (stereo not drawn) [Example 305, 5-(6,7-Dichloro-10-(1H-pyrazol-4-yl)-1,2,3,4-tetrahydropyrazino[1,2-a]indole-2-carbonyl)-1-methylpiperidin-2-one], the IC50 on recombinant human cGAS is 0.0378 µM; in assay [1] (setting [2]), above 10 µM.
The corresponding values for `FCCNc1cc(Cl)c(Cl)c2[nH]cc(-c3cn[nH]c3)c12` [Example 123, 6,7-Dichloro-N-(2-fluoroethyl)-3-(1H-pyrazol-4-yl)-1H-indol-4-amine] are 0.00491 µM and 0.547 µM.
Consider `CCOc1cc(Cl)c(Cl)c2c1c(-c1cn[nH]c1)c1n2CC[C@H]1NC(C)=O` [Example 235, (R)—N-(5,6-Dichloro-8-ethoxy-9-(1H-pyrazol-4-yl)-2,3-dihydro-1H-pyrrolo[1,2-a]indol-1-yl)acetamide], for which the figures for the IC50 (at recombinant human cGAS; in assay [1] (setting [2])) were 0.019 µM and 2.05 µM, respectively.
The corresponding values for `O=C(CO)Nc1nnc(-c2[nH]c3c(Cl)c(Cl)ccc3c2-c2cn[nH]c2)o1` [Example 257, N-[5-[6,7-Dichloro-3-(1H-pyrazol-4-yl)-1H-indol-2-yl]-1,3,4-oxadiazol-2-yl]-2-hydroxy-acetamide] are 0.0235 µM and above 10 µM.
For the molecule `Cc1nnc(-c2[nH]c3c(Cl)c(Cl)ccc3c2-c2cn[nH]c2)o1` [Example 127, 2-(6,7-Dichloro-3-(1H-pyrazol-4-yl)-1H-indol-2-yl)-5-methyl-1,3,4-oxadiazole], the IC50 at recombinant human cGAS came to 0.029 µM; in assay [1] (setting [2]) it was 0.216 µM.
For `OC1Cc2c(-c3cn[nH]c3)c3ccc(Cl)c(Cl)c3n2C1` (stereo not drawn) [Example 278, 5,6-Dichloro-9-(1H-pyrazol-4-yl)-2,3-dihydro-1H-pyrrolo[1,2-a]indol-2-ol] the same measures were 0.0391 µM and 2.19 µM.
For `CC(=O)NC1Cc2c(-c3cn[nH]c3)c3ccc(Cl)c(Cl)c3n2C1` (stereo not drawn) [Example 155, N-(5,6-Dichloro-9-(1H-pyrazol-4-yl)-2,3-dihydro-1H-pyrrolo[1,2-a]indol-2-yl)acetamide] the same measures were 0.0273 µM and 7.68 µM.

A word on the IC50: it is the concentration that gives 50% inhibition.

These data come from patent US20230391786A1, “cGAS INHIBITORS” (Eli Lilly and Company, priority 2022, published 2023).
